Data reported in patent US5041567A, “Antibacterial monic acid derivatives” (Beecham Group plc, priority 1982, dated 1991).
Converted amounts (≈) assume the structure as drawn. Like-named read-outs stand apart in the source and are kept apart here.

Key:
M. suipneumoniae JF 435 = assay: MIC against mycoplasma in vitro; format: cell-based
M. suipneumoniae HK(2) = assay: MIC against mycoplasma in vitro; format: cell-based; conditions: M. suipneumoniae HK(2), 6 days, 37° C.
[1] = tested on: M. suipneumoniae J2206/183^b; assay: MIC against mycoplasma in vitro; format: cell-based; conditions: M. suipneumoniae J2206/183^b, 6 days, 37° C.
[2] = tested on: M. suipneumoniae PW/C/210; assay: MIC against mycoplasma in vitro; format: cell-based; conditions: Mesomycoplasma hyopneumoniae, 144 h
M. suipneumoniae LABER = assay: MIC against mycoplasma in vitro; format: cell-based
M. suipneumoniae UCD 1 = assay: MIC against mycoplasma in vitro; format: cell-based
[3] = tested on: M. suipneumoniae ATCC 25095; assay: MIC against mycoplasma in vitro; format: cell-based
[4] = tested on: M. suipneumoniae NCTC 10110; assay: MIC against mycoplasma in vitro; format: cell-based; conditions: M. suipneumoniae NCTC 10110, 6 days, 37° C.
M. hyorhinis ATCC 23234 = assay: MIC against mycoplasma in vitro; format: cell-based
M. hyorhinis ATCC 25021 = assay: MIC against mycoplasma in vitro; format: cell-based
[5] = tested on: M. hyosynoviae ATCC 25591; assay: MIC against mycoplasma in vitro; format: cell-based; conditions: M. hyosynoviae ATCC 25591, 6 days, 37° C.
M. dispar NCTC 10125 = assay: MIC against mycoplasma in vitro; format: cell-based
M. pneumoniae ATCC 15492 = assay: MIC against mycoplasma in vitro; format: cell-based
E. coli ESS = assay: MIC against human bacteria in vitro; format: cell-based; conditions: E. coli ESS, 5% chocolated horse blood agar, 18 hours
[6] = tested on: Pasteurella multocida 1633; assay: MIC against human bacteria in vitro; format: cell-based; conditions: Pasteurella multocida 1633, 5% chocolated horse blood agar, 18 hours
[7] = tested on: Haemophilus influenzae Wy21; assay: MIC against human bacteria in vitro; format: cell-based
Bacillus subtilis 6633 = assay: MIC against human bacteria in vitro; format: cell-based
[8] = tested on: Corynebacterium xerosis 9755; assay: MIC against human bacteria in vitro; format: cell-based; conditions: Corynebacterium xerosis 9755, 5% chocolated horse blood agar, 18 hours
Sarcina lutea 8340 = assay: MIC against human bacteria in vitro; format: cell-based; conditions: Sarcina lutea 8340, 5% chocolated horse blood agar, 18 hours
Staph. aureus Oxford [9] = assay: MIC against human bacteria in vitro; format: cell-based; conditions: Staph. aureus Oxford, 5% chocolated horse blood agar, 18 hours
Staph. aureus Russell = assay: MIC against human bacteria in vitro; format: cell-based; conditions: Staph. aureus Russell, 5% chocolated horse blood agar, 18 hours
Staph. aureus W2827 = assay: MIC against human bacteria in vitro; format: cell-based; conditions: Staph. aureus W2827, 5% chocolated horse blood agar, 18 hours
Strep. agalactiae 2788-B = assay: MIC against human bacteria in vitro; format: cell-based; conditions: Strep. agalactiae 2788-B, 5% chocolated horse blood agar, 18 hours
S. dublin S7 = assay: MIC against veterinary bacteria in vitro
Protocol: (§1) The activity of the compounds of the Examples against various veterinarily important bacteria, was assayed in vitro using two-fold serial dilutions in Diagnostic Sensitivity Test Agar inoculated with 10^4 organisms.

Bord. bronchiseptica B08 = assay: MIC against veterinary bacteria in vitro
Protocol: as §1

Past. multocida PA1 = assay: MIC against veterinary bacteria in vitro
Protocol: as §1

Past. multocida PA2 = assay: MIC against veterinary bacteria in vitro; conditions: Pasteurella multocida, PA2, 18 h
Protocol: as §1

[10] = tested on: Erysipelothrix rhusiopathiae NCTC 8163; assay: MIC against veterinary bacteria in vitro
Protocol: as §1

[11] = tested on: Corynebacterium pyogenes CY1; assay: MIC against veterinary bacteria in vitro
Protocol: as §1

[12] = tested on: Staph. aureus B4 (pen. resistant); assay: MIC against veterinary bacteria in vitro
Protocol: as §1

Staph. aureus Oxford [13] = assay: MIC against veterinary bacteria in vitro
Protocol: as §1

[14] = tested on: Strep. suis (group D) SPS11; assay: MIC against veterinary bacteria in vitro
Protocol: as §1

Strep. agalactiae SPA1 = assay: MIC against veterinary bacteria in vitro
Protocol: as §1

Past. haemolytica PA5 = assay: MIC against veterinary bacteria in vitro; conditions: Past. haemolytica PA5; Diagnostic Sensitivity Test Agar, 18 hours
Protocol: as §1

[15] = Mesomycoplasma hyopneumoniae, 144 h, read-out: MIC
[16] = Staphylococcus aureus, read-out: MIC

## C/C(=C\c1ncc(-c2ccccc2[N+](=O)[O-])o1)C[C@@H]1OC[C@H](C[C@@H]2O[C@H]2[C@@H](C)[C@H](C)O)[C@@H](O)[C@H]1O [Example 26, 5-o-Nitrophenyl-2-(1-normon-2-yl)oxazole A]
M. suipneumoniae JF 435; Mesomycoplasma hyopneumoniae, JF435, 144 h
  MIC: 2.5 µg/mL (≈ 5.12 µM)
M. suipneumoniae HK(2); [15]
  MIC: 5 µg/mL (≈ 10.2 µM)
[1]; [15]
  MIC: 5 µg/mL (≈ 10.2 µM)
[2]
  MIC: 1 µg/mL (≈ 2.05 µM)
M. suipneumoniae LABER; Mesomycoplasma hyopneumoniae, 144 h
  MIC: 2.5 µg/mL (≈ 5.12 µM)
M. suipneumoniae UCD 1; Mesomycoplasma hyopneumoniae, UCD1, 144 h
  MIC: 2.5 µg/mL (≈ 5.12 µM)
[3]; Mesomycoplasma hyopneumoniae, ATCC25095, 144 h
  MIC: 2.5 µg/mL (≈ 5.12 µM)
[4]; Mesomycoplasma hyopneumoniae, NCTC10110, 144 h, read-out: MIC
  MIC: 5 µg/mL (≈ 10.2 µM)
M. hyorhinis ATCC 23234; Mesomycoplasma hyorhinis, ATCC23234, 144 h
  MIC: 2.5 µg/mL (≈ 5.12 µM)
M. hyorhinis ATCC 25021; Mesomycoplasma hyorhinis, ATCC25021, 144 h
  MIC: 2.5 µg/mL (≈ 5.12 µM)
[5]; 144 h, read-out: MIC
  MIC: 0.5 µg/mL (≈ 1.02 µM)
M. dispar NCTC 10125; 144 h
  MIC: 1 µg/mL (≈ 2.05 µM)
M. pneumoniae ATCC 15492; Mycoplasmoides pneumoniae, ATCC15492, 144 h
  MIC: 2.5 µg/mL (≈ 5.12 µM)
E. coli ESS; Escherichia coli, read-out: MIC
  MIC: 8 µg/mL (≈ 16.4 µM)
[6]; read-out: MIC
  MIC: 16 µg/mL (≈ 32.8 µM)
[7]; Haemophilus influenzae, WY21, 18 h
  MIC: 0.25 µg/mL (≈ 0.512 µM)
Bacillus subtilis 6633; Bacillus subtilis, 6633, 18 h
  MIC: 0.25 µg/mL (≈ 0.512 µM)
[8]; read-out: MIC
  MIC: > 128 µg/mL
Sarcina lutea 8340; Micrococcus luteus, read-out: MIC
  MIC: > 128 µg/mL
Staph. aureus Oxford [9]; [16]
  MIC: 4 µg/mL (≈ 8.19 µM)
Staph. aureus Russell; [16]
  MIC: 4 µg/mL (≈ 8.19 µM)
Staph. aureus W2827; [16]
  MIC: 4 µg/mL (≈ 8.19 µM)
Strep. agalactiae 2788-B; Streptococcus agalactiae, read-out: MIC
  MIC: 2 µg/mL (≈ 4.09 µM)
S. dublin S7; Salmonella enterica, S7, 18 h
  MIC: > 80 µg/mL
Bord. bronchiseptica B08; Bordetella bronchiseptica, B08, 18 h
  MIC: 80 µg/mL (≈ 164 µM)
Past. multocida PA1; Pasteurella multocida, PA1, 18 h
  MIC: 10 µg/mL (≈ 20.5 µM)
Past. multocida PA2
  MIC: 5 µg/mL (≈ 10.2 µM)
[10]; Erysipelothrix rhusiopathiae, NCTC8163, 18 h
  MIC: > 80 µg/mL
[11]; CY1, 18 h
  MIC: > 80 µg/mL
[12]; Staphylococcus aureus, 18 h
  MIC: 2.5 µg/mL (≈ 5.12 µM)
Staph. aureus Oxford [13]; Staphylococcus aureus, 18 h
  MIC: 2.5 µg/mL (≈ 5.12 µM)
[14]; Streptococcus suis, 18 h
  MIC: 10 µg/mL (≈ 20.5 µM)
Strep. agalactiae SPA1; Streptococcus agalactiae, SPA1, 18 h
  MIC: 2.5 µg/mL (≈ 5.12 µM)

## CC(=Cc1cnc(-c2ccccc2)o1)CC1OCC(CC2OC2C(C)C(C)O)C(O)C1O (centres unmarked) [Example 35, 5-(1-Normon-2-yl)-2-phenyloxazole A]
M. suipneumoniae JF 435; M. suipneumoniae JF 435, 6 days, 37° C.
  MIC: > 10 µg/mL
M. suipneumoniae HK(2)
  MIC: > 10 µg/mL
[1]
  MIC: > 10 µg/mL
M. suipneumoniae LABER; M. suipneumoniae LABER, 6 days, 37° C.
  MIC: > 10 µg/mL
M. suipneumoniae UCD 1; M. suipneumoniae UCD 1, 6 days, 37° C.
  MIC: > 10 µg/mL
[3]; M. suipneumoniae ATCC 25095, 6 days, 37° C.
  MIC: > 10 µg/mL
[4]
  MIC: > 10 µg/mL
M. hyorhinis ATCC 23234; M. hyorhinis ATCC 23234, 6 days, 37° C.
  MIC: > 10 µg/mL
M. hyorhinis ATCC 25021; M. hyorhinis ATCC 25021, 6 days, 37° C.
  MIC: > 10 µg/mL
[5]
  MIC: > 10 µg/mL
M. dispar NCTC 10125; M. dispar NCTC 10125, 6 days, 37° C.
  MIC: > 10 µg/mL
M. pneumoniae ATCC 15492; M. pneumoniae ATCC 15492, 6 days, 37° C.
  MIC: > 10 µg/mL
E. coli ESS
  MIC: 128 µg/mL (≈ 289 µM)
[6]
  MIC: > 128 µg/mL
[7]; Haemophilus influenzae Wy21, 5% chocolated horse blood agar, 18 hours
  MIC: 128 µg/mL (≈ 289 µM)
Bacillus subtilis 6633; Bacillus subtilis 6633, 5% chocolated horse blood agar, 18 hours
  MIC: > 128 µg/mL
[8]
  MIC: > 128 µg/mL
Sarcina lutea 8340
  MIC: > 128 µg/mL
Staph. aureus Oxford [9]
  MIC: > 128 µg/mL
Staph. aureus Russell
  MIC: > 128 µg/mL
Staph. aureus W2827
  MIC: > 128 µg/mL
Strep. agalactiae 2788-B
  MIC: > 128 µg/mL
S. dublin S7; S. dublin S7, Diagnostic Sensitivity Test Agar, 18 hours
  MIC: > 80 µg/mL
Bord. bronchiseptica B08; Bord. bronchiseptica B08, Diagnostic Sensitivity Test Agar, 18 hours
  MIC: > 80 µg/mL
Past. multocida PA1; Past. multocida PA1, Diagnostic Sensitivity Test Agar, 18 hours
  MIC: 80 µg/mL (≈ 180 µM)
Past. haemolytica PA5
  MIC: > 80 µg/mL
[10]; Erysipelothrix rhusiopathiae NCTC 8163, Diagnostic Sensitivity Test Agar, 18 hours
  MIC: > 80 µg/mL
[11]; Corynebacterium pyogenes CY1, Diagnostic Sensitivity Test Agar, 18 hours
  MIC: > 80 µg/mL
[12]; Staph. aureus B4 (pen. resistant), Diagnostic Sensitivity Test Agar, 18 hours
  MIC: > 80 µg/mL
Staph. aureus Oxford [13]; Staph. aureus Oxford, Diagnostic Sensitivity Test Agar, 18 hours
  MIC: > 80 µg/mL
[14]; Strep. suis (group D) SPS11, Diagnostic Sensitivity Test Agar, 18 hours
  MIC: > 80 µg/mL
Strep. agalactiae SPA1; Strep. agalactiae SPA1, Diagnostic Sensitivity Test Agar, 18 hours
  MIC: > 80 µg/mL
